Laboratory results taken from ChEMBL document CHEMBL5614450, “SAR Study of 4,8-Disubstituted Pyrimido[5,4-d]pyrimidines Exhibiting Antitrypanosomal and Antileishmanial Activity” (ACS Med Chem Lett, 2024).
Blank lines part the entries; values can stand above or below the compound they belong to.

Columns and labels:
Trypanosoma brucei = test: Anti-trypanosomal activity against trypomastigote blood stage of Trypanosoma brucei Lister 427 assessed as inhibition of parasite growth incubated for 72 hrs by resazurin-dye based assay; format: functional, organism-based; conditions: Lister 427, 72 h
[1] = Cytotoxicity against human THP-1 cells assessed as reduction in cell viability incubated for 72 hrs by MTT assay; format: toxicity, cell-based
[2] = Selectivity index, ratio of CC50 for cytotoxicity against human THP-1 cells to IC50 for anti-trypanosomal activity against trypomastigote blood stage of Trypanosoma brucei Lister 427; format: toxicity, cell-based; conditions: read-out: Ratio CC50/IC50
Leishmania infantum [3] = test: Anti-leishmanial activity against promastigote stage of Leishmania infantum MHOM/MA/67/ITMAP-263 assessed as inhibition of parasite growth at 10 uM incubated for 72 hrs by resazurin-dye based assay; format: functional
Leishmania infantum [4] = test: Anti-leishmanial activity against promastigote stage of Leishmania infantum MHOM/MA/67/ITMAP-263 assessed as inhibition of parasite growth incubated for 72 hrs by resazurin-dye based assay; format: functional, organism-based; conditions: MHOM/MA/67/ITMAP-263, 72 h
Leishmania infantum [5] = test: Anti-leishmanial activity against luciferase expressing intracellular amastigote stage of Leishmania infantum MHOM/MA/67/ITMAP-263 infected in human THP-1 cells assessed as inhibition of parasite growth at 10 uM incubated for 72 hrs by Steady-Glo luciferase assay; format: functional; conditions: MHOM/MA/67/ITMAP-263, THP-1
Leishmania infantum [6] = test: Anti-leishmanial activity against luciferase expressing intracellular amastigote stage of Leishmania infantum MHOM/MA/67/ITMAP-263 infected in human THP-1 cells assessed as inhibition of parasite growth incubated for 72 hrs by Steady-Glo luciferase assay; format: functional, organism-based; conditions: MHOM/MA/67/ITMAP-263, THP-1, 72 h
[7] = Selectivity index, ratio of CC50 for cytotoxicity against human THP-1 cells to IC50 for anti-leishmanial activity against promastigote stage of Leishmania infantum MHOM/MA/67/ITMAP-263; format: toxicity, cell-based; conditions: read-out: Ratio CC50/IC50
[8] = Selectivity index, ratio of CC50 for cytotoxicity against human THP-1 cells to IC50 for anti-leishmanial activity against luciferase expressing intracellular amastigote stage of Leishmania infantum MHOM/MA/67/ITMAP-263 infected in human THP-1 cells; format: toxicity, cell-based; conditions: read-out: Ratio CC50/IC50
[9] = Cytotoxicity against human A549 cells assessed as reduction in cell viability at 10 uM incubated for 24 hrs by Cell-Titer Glo luminescence assay; format: toxicity, cell-based; conditions: read-out: INH
[10] = Cytotoxicity against human HEK293 cells assessed as reduction in cell viability at 10 uM incubated for 24 hrs by Cell-Titer Glo luminescence assay; format: toxicity, cell-based; conditions: read-out: INH
CYP3A4 = CYP3A4 (Homo sapiens, UniProt P08684); test: Inhibition of human CYP3A4 expressed in insect cell microsomes at 10 uM preincubated for 20 mins followed by NADP+ and substrate addition and measured after 10 mins by fluorescence based analysis; format: ADME, Microsome; conditions: recombinant human CYP3A4 expressed in insect cell microsomes, time 30 min
hERG (KCNH2) = hERG (KCNH2) (Homo sapiens, UniProt Q12809); test: Displacement of tracer from hERG extracted from membrane at 10 uM incubated for 2 hrs by fluorescence polarization assay; format: toxicity, cell membranes; conditions: hERG membrane preparation, probe tracer (not named)
Sequence of hERG (KCNH2) (Q12809 whole entry): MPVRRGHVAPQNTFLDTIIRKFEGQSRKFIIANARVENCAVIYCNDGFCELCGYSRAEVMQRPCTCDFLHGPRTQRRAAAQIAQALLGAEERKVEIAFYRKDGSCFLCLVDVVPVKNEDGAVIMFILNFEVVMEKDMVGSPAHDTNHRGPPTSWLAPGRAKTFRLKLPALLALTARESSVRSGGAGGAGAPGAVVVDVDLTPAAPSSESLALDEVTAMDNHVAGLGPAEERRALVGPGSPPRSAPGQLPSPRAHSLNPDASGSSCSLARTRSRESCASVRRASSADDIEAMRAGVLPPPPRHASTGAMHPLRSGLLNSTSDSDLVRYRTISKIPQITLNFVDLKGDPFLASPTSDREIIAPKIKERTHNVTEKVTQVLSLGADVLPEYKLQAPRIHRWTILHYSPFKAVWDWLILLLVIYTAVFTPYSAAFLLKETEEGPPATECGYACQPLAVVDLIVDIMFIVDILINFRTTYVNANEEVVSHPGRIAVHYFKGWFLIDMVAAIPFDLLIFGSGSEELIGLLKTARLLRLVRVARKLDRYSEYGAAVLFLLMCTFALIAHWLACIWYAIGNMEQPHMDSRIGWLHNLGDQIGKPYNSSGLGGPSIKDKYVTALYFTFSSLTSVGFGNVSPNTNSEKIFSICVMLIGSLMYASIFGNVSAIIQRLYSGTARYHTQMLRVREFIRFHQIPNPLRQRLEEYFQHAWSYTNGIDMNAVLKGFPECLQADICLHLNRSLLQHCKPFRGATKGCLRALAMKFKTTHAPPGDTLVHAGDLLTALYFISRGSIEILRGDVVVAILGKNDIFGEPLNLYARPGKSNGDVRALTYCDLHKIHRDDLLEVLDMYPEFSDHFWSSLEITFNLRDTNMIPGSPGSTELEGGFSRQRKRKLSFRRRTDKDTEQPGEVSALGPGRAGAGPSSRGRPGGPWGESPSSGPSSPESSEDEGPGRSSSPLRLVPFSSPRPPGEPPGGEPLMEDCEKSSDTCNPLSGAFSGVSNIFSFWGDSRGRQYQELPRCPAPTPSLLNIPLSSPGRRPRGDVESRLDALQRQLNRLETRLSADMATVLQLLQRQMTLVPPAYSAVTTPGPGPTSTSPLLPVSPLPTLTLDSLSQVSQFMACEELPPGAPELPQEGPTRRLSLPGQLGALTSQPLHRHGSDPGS

Sequence of CYP3A4 (P08684 whole entry): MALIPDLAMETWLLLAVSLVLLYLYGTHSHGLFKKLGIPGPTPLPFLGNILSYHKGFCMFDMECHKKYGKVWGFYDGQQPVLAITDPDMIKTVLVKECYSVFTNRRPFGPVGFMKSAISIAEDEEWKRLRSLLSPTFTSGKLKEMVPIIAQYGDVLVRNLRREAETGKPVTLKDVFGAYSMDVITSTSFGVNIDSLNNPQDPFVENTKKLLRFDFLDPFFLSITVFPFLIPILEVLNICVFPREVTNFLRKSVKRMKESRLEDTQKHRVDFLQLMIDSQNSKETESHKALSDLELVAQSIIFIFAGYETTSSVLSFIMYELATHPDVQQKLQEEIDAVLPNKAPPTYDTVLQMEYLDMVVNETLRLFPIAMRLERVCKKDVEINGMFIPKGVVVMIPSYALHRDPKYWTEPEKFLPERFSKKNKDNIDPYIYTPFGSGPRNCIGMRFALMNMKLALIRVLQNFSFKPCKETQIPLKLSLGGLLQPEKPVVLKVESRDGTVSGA

IC50 (Trypanosoma brucei): 550 nM
inhibition at 10 min, 10 µM (CYP3A4): 2%
SMILES: COc1ccc(Nc2ncnc3c(N/N=C/c4ccc(O)c(O)c4)ncnc23)cc1
CC50 at 72 h [1]: > 100000 nM
selectivity ratio [2]: > 182
inhibition at 10 µM (Leishmania infantum [3]): 98%
IC50 (Leishmania infantum [4]): 990 nM
inhibition at 10 µM (Leishmania infantum [5]): 87%
IC50 (Leishmania infantum [6]): 3130 nM
selectivity ratio [7]: > 101
selectivity ratio [8]: > 32
cytotoxicity at 24 h, 10 µM [9]: 39%
cytotoxicity at 24 h, 10 µM [10]: 18%
inhibition at 2 h, 10 µM (hERG (KCNH2)): 36%

IC50 (Trypanosoma brucei): 1280 nM
inhibition at 10 min, 10 µM (CYP3A4): 2%
SMILES: COc1cccc(Nc2ncnc3c(N/N=C/c4ccc(O)c(O)c4)ncnc23)c1
CC50 at 72 h [1]: > 50000 nM
selectivity ratio [2]: > 39
inhibition at 10 µM (Leishmania infantum [3]): 94%
IC50 (Leishmania infantum [4]): 1670 nM
inhibition at 10 µM (Leishmania infantum [5]): 62%
IC50 (Leishmania infantum [6]): 8510 nM
selectivity ratio [7]: 30
selectivity ratio [8]: 6
cytotoxicity at 24 h, 10 µM [9]: 22%
cytotoxicity at 24 h, 10 µM [10]: 7%
inhibition at 2 h, 10 µM (hERG (KCNH2)): 18%

IC50 (Trypanosoma brucei): 2440 nM
inhibition at 10 min, 10 µM (CYP3A4): 0%
SMILES: COc1ccc(Nc2ncnc3c(N/N=C/c4ccc(OC)c(OC)c4)ncnc23)cc1
CC50 at 72 h [1]: > 100000 nM
selectivity ratio [2]: > 41
inhibition at 10 µM (Leishmania infantum [3]): 98%
IC50 (Leishmania infantum [4]): 1930 nM
inhibition at 10 µM (Leishmania infantum [5]): 85%
IC50 (Leishmania infantum [6]): 3000 nM
selectivity ratio [7]: > 52
selectivity ratio [8]: > 33
cytotoxicity at 24 h, 10 µM [9]: 23%
cytotoxicity at 24 h, 10 µM [10]: 12%
inhibition at 2 h, 10 µM (hERG (KCNH2)): 0%
